The record followed here is the NIST ThermoML archive (doi:10.1016/j.fluid.2016.02.028).

SMILES strings stand for the structures. Numbers after ± are expanded uncertainties.

The conditions of the data set: 298.15 K; 101.33 kPa; Liquid; Vibrating tube method.
`CCCC[N+](C)(CCCC)CCCC.O=S(=O)([N-]S(=O)(=O)C(F)(F)F)C(F)(F)F` [tributylmethylammonium bis((trifluoromethyl)sulfonyl)imide]: the mass density is listed as 1261.65 ± 6 kg/m3.
The same measure for `c1ccccc1` [benzene]: 873.71 ± 2 kg/m3; for `CCCCCCCCCC` [decane]: 726.15 ± 2 kg/m3; for `CCCCCCCC` [octane]: 698.86 ± 2 kg/m3.

The term mass density denotes the mass of a sample divided by its volume.
